Assay results: a melting point compilation (Tetko et al.; mined from patent text by program, amines drawn as free bases though some values may be those of a salt)

SMILES | melting point
CC(=O)N1CCN=C1Nc1cc(C)nn1-c1cccc2ccccc12 | 194 to 195 °C
CC1Nc2cc(F)ccc2-n2cccc21 (centres undefined) | 76 to 78 °C
CCOC(=O)/C=C/c1ccc(OC(C)=O)c(Cl)c1 | 59 to 61 °C
CN(C)c1ncc(Br)cn1 | 81 to 82 °C
CCON=C(C(=O)OCC)c1csc(N)n1 | 129 °C
CCCCOC1=C(c2ccccc2)C(CCC(=O)O)OC1=O (centres undefined) | 94 to 96 °C
COc1ccc(C(=O)Nc2ccccc2)cc1NC(=S)Nc1ccc([N+](=O)[O-])cc1 | 183 to 184 °C
CSC1C(=O)Nc2ccc(Oc3ccccc3Cl)cc21 (centres undefined) | 120 to 123 °C
Cc1ccc(-c2ccc(C(=O)Nc3cc4ncc(CN5CCCC5)cc4cc3C)c(F)c2)cc1 | 176 to 179 °C
COC(=O)c1ncn2c1CN(C)C(=O)c1sccc1-2 | 244 to 245 °C
CCCCc1nc2cccc(C(=O)OC)c2n1Cc1ccc(-n2c(C)ccc2C#N)cc1 | 131 to 132 °C
CC(C)n1c(C=O)c(-c2ccc(F)cc2)c(-c2ccccc2)c1C(=O)Nc1cccc(S(N)(=O)=O)c1 | 224 to 225 °C
CCOC(=O)c1cn(-c2ccc(OC)cc2)c2c(F)c(F)c(F)c(C)c2c1=O | 175 to 176 °C
CC1(C)CC(=O)c2c(C3CCC3)sc(C#N)c2C1 | 65 to 68 °C
CC1(C)C=Cc2c(ccc3ncccc23)O1 | 104 to 107 °C
Cc1ccc2c(c1)c(CCNC(=O)c1ccccc1)c1n2C(=O)CCC1 | 171 °C
FC(F)(F)c1ccc(C=Nc2c3c(nc4ccccc24)CCCC3)cc1 | 203 to 205 °C
Cc1ccc(NC(=O)C(C)(C)C)c(-c2ccnc(OCC(F)(F)F)n2)c1 | 126 to 128 °C
CCCN(CCC)CCc1ccc(O)c2[nH]ncc12 | 125 to 127 °C
Cc1noc(C)c1C(=O)Nc1ccc(-n2nc(C3CC3)cc2C2CC2)cc1 | 115 to 119 °C
Oc1cccc2c1CC1CNCC2C1 (centres undefined) | 106 to 108 °C
CCCn1c(=O)c2[nH]c(C3(N)CCCCC3)nc2n(CCC)c1=O | 172 to 173 °C
CN1CCN(C2=Nc3ccccc3Nc3nn(C)nc32)CC1 | 182 to 184 °C
O=[N+]([O-])c1nccn1COCCO | 115 °C
Cc1ccc(-c2cccc(NC(=O)Nc3cccc4c3CC(O)CC4)c2)cc1 (centres undefined) | 217 to 219 °C

SMILES | melting point
Cc1csc(C)c1NC(=O)CO | 85 to 87 °C
COC1CC(C(=O)O)Cc2onc(-c3ccc(Cl)cc3)c21 (centres undefined) | 190 to 191 °C
CCCCCC(CCCCCO)NCc1cc2cc3c(cc2c2cc(OC)ccc12)OCO3 (centres undefined) | 122 to 124 °C
Cc1cc(O)c(S(=O)CC2CCCCC2)c(=O)o1 (centres undefined) | 132 to 134 °C
O=S(=O)(c1ccncc1)C1CCNCC1 | 88 to 91 °C
CCn1cc(C(=O)NCc2ccc(Cl)cc2)c(=O)c2cc(C#CCOC(=O)CN3CCOCC3)sc21 | 168 to 170 °C
CC(=O)Oc1cccc(C(=Cc2ccccc2)c2cccc(OC(C)=O)c2OC(C)=O)c1OC(C)=O | 163 °C
CC(=O)c1c(-c2ccc(C(F)(F)F)cc2)[nH]c(-c2ccncc2)c1C | 178 to 180 °C
CCCCCOc1ccc(CCOc2ccc(/C=C(\OCC)C(=O)O)cc2OC)cc1 | 135 °C
CCn1ncc2cc3c(nc21)CCc1ccccc1C3=O | 88 to 90 °C
NC(=O)NN=Cc1ccc(Oc2cc(Cl)ccn2)cc1 | 231 to 233 °C
NC(=O)N(O)Cc1ccc(Sc2ccc(Cl)cc2)s1 | 158 to 160 °C
CN(C1CC(C)(C)Oc2ccc(O)cc21)S(C)(=O)=O (centres undefined) | 159 to 161 °C
COc1ccc2c(c1)c1c3c(c(-c4ccccc4Cl)cc1n2CCCO)C(=O)NC3=O | 228 to 230 °C
CCCCCCCCCCCCCCCCCCNC(=O)O[C@@H]1CCCO[C@H]1COCc1ccccc1 (relative stereo) | 84 to 86 °C
O=C(C=Cc1cc(Br)c(O)c(Br)c1)N1CCc2c([nH]c3ccccc23)C1c1ccc2c(c1)OCO2 (centres undefined) | 148 to 150 °C
COc1ccc(C2=C(C(=O)N3CCOCC3)C(=O)c3ccccc32)cc1OC | 71.5 °C
O=C(c1ccc(Cl)cc1)c1ccc(OC(F)(F)F)cc1 | 74.5 to 75 °C
CCc1nc2c(N)nc3ccccc3c2n1CCCCNS(=O)(=O)c1ccccc1 | 181 to 182 °C
O=C1c2ccccc2C(=O)N1CCCCc1ccco1 | 61 to 63 °C
CN(CCCCCCCC(F)(F)C(F)(F)F)CCCCCC1Cc2cc(O)ccc2C2C(F)CC3(C)C(O)CCC3C12 (centres undefined) | 11 °C
O=C(O)c1cnn(CCCCN2CCN(C(c3ccccc3)c3ccccc3)CC2)c1 | 70 to 74 °C
CC(C)(C)C(=O)CN1C(=O)C(NC(=O)Nc2ccccc2)CN(C2CCCCC2)c2ccccc21 (centres undefined) | 247 to 251 °C
COc1ccc(S(=O)(=O)Nc2c(C(=O)NO)cc(C)c(Cc3ccccc3)c2C#N)cc1 | 175 °C
O=C(Nc1ccc(N2CCNCC2)c(C(F)(F)F)c1)c1ccc(F)c(OCc2cncc3ccccc23)c1 | 103 to 107 °C

SMILES | melting point
Cc1ccc(C)c(S(=O)(=O)Nc2onc(C)c2Cl)c1 | 92 to 93 °C
Cc1cc(=O)[nH]nc1-c1ccc(-c2ccc(F)cc2)cc1 | 245 to 247 °C
O=C(Nc1cccc2c(-n3ccnc3)c(CO)cnc12)c1c(Cl)cccc1Cl | 205 to 207 °C
CC(C)(C)c1ccc(CO)cc1NC(=O)CC1c2ccccc2Oc2ccccc21 | 137 to 138 °C
O=C1c2cc(OCc3ccc4ccccc4n3)ccc2CC1Cc1ccccc1 (centres undefined) | 104 to 106 °C
CC(C)n1nc(C(=CN(C)C)C(=O)c2ccc(F)cc2)ccc1=O | 161 to 162 °C
O=C1CN2Cc3cccc(OCCCC(=O)N(CCO)CCCCC4CCCCC4)c3N=C2N1 | 110 to 111 °C
N[C@H]1CCN(c2ccc3c(C(=O)NCCc4ccccc4Cl)c(Cl)ccc3n2)C1 | 196 to 198 °C
CCOC(=O)C(C)(C)c1ccc(-n2c(-c3cc(-c4cnc5ccccc5c4)ccn3)cn(C)c2=O)cc1 | 158 °C
Cc1c(-c2ccccc2)oc2c(OCCCCBr)cccc2c1=O | 91 to 92 °C
COc1cc(Nc2c(C#N)cnc3cc(F)c(OCCN4CCOCC4)cc23)c(Cl)cc1Cl | 166 to 168 °C
CC(=O)NC(Oc1ccccc1)C(=O)NCc1ccccc1 (centres undefined) | 125 to 128 °C
CCOC(=O)C(=NOC)c1noc(N)n1 | 143 to 146 °C
Cc1ccc2ncn(-c3nnn[nH]3)c(=O)c2c1 | 285 to 286 °C
O=Cc1cn(-c2ccccn2)nc1-c1ccc([N+](=O)[O-])o1 | 191 to 192 °C
O=C(N1CCOCC1)N1CCN(CCNc2ncc3ncnc(Nc4ccc(F)c(Cl)c4)c3n2)CC1 | 163 to 168 °C
COc1ccc(CN(C)C(=O)c2c(-c3ccncc3)c(-c3ccc(F)cc3)nn2C)cc1 | 150 to 153 °C
O=C(CCCc1ccccc1)c1cccc(OCc2ccc3ccccc3c2)c1 | 75 to 76 °C
CC(O)c1ccc(Cl)c(S(N)(=O)=O)c1 (centres undefined) | 144 to 146 °C
COc1ccc(CNn2c(=O)ccc3ccc(Cl)nc32)cc1Cl | 151 to 154 °C
CC1CN(C2=NC(=O)C(=Cc3cccc(-c4cc(F)c(O)c(C56CC7CC(CC(C7)C5)C6)c4)c3)S2)CC(C)O1 (centres undefined) | 262 to 264 °C
CCn1nc(Cc2ccc([N+](=O)[O-])cc2)oc1=O | 108 to 109 °C
CC(C)n1cc(-c2nc(C(N)=O)c(N)nc2-c2ccccc2OC(F)(F)F)ccc1=O | 206 °C
CCCn1c(CCOC)nc2c(N)nc3cc(OC(=O)NC(C)C)ccc3c21 | 144 to 146 °C
O=C(O)c1cc2cc(OCCNC[C@H](O)COc3ccccc3)ccc2s1 | 261 to 262 °C

SMILES | melting point
Cc1ccc(C(=O)C2=C(N)CCCC2)cc1 | 130 to 131 °C
N#Cc1ccc2c(c1)c1c(n2Cc2cccc(F)n2)CCC(NC(=O)C2CC2)C1 (centres undefined) | 243 to 245 °C
CCOC(=O)C1C(N(C)C(=O)C(F)(F)F)C(=O)N1c1ccc(OC)cc1 (centres undefined) | 102 to 104 °C
COC(=O)C[C@@H](CC(=O)/C=C/c1c(-c2ccc(F)cc2)c(-c2ccc(F)cc2)c(C(=O)Nc2cccc(C(=O)N(C)C)c2)n1C(C)C)O[Si](C)(C)C(C)(C)C | 135 to 137 °C
NC(=O)[C@@H]1C[C@H](S)CN1C(=O)OCc1ccc([N+](=O)[O-])cc1 | 158 to 162 °C
CC(O)/C=C/c1ncn2c1CN(C)C(=O)c1c(Cl)cccc1-2 (centres undefined) | 232 to 233 °C
Cc1oc(-c2ccccc2)nc1CCCc1ccc(CCCC2OC(=O)NC2=O)cc1 (centres undefined) | 119 to 120 °C
COC(=O)c1cc2cc(OC)ccc2n1C | 200 °C
CC(C)C(NS(=O)(=O)c1ccc(-c2ccc(NC(=O)c3cc4cc(Br)ccc4o3)cc2)cc1)C(=O)O (centres undefined) | 263 to 265 °C
Cc1nc(Cl)c(C(=O)O)cc1Cl | 123 to 138 °C
NC(=O)c1nccn1C1Cc2cc(Br)ccc2C1=O (centres undefined) | 240 °C
CC(C)OC(=O)c1cccc(C(O)(c2ccc3c(c2)c(-c2cccc(Cl)c2)cc(=O)n3C)c2cncn2C)c1 (centres undefined) | 150 °C
Cc1c(-c2ccccc2)n(-c2c(F)cccc2F)c(-c2ccccc2Cl)cc1=O | 213 to 215 °C
CON=C(C)Cc1sc2ccc(Cl)cc2c1Cl | 65 to 68 °C
CCOCc1nc2c(N)nc3ccc(OCc4ccccc4)cc3c2n1CCCCNS(C)(=O)=O | 182 to 185 °C
CCOC(=O)c1c(C)nc(N2CCCCC2)c2nnn(CC)c12 | 45 to 47 °C
CCOC(=O)n1c2ccccc2c(=O)n1CSc1ccccc1 | 87 to 88 °C
O=C(O)CCCCNC(=O)NCCCCC1CCSS1 (centres undefined) | 125 to 132 °C
Cc1cc(-c2nc3cc(C(C)(C)C)c(Cl)nn3c2-c2ccnc(N)c2)ccc1F | 232 to 233 °C
O=C(O)[C@H](Cc1cccs1)NN1C(=O)c2ccccc2C1=O | 166 to 168 °C
CC(C)(C)NS(=O)(=O)c1cccnc1F | 95 to 97 °C
O=[N+]([O-])c1ccc2c(c1)Sc1cc(OCCF)ccc1N2 | 189 to 191 °C
NC(=O)c1ccc(NC(=NC(=O)c2cccc(Br)c2)NC(=O)c2ccccc2)cc1 | 282 to 283 °C
O=C(O)c1cnn(-c2ccc(C(F)(F)F)cc2)c1C(F)(F)F | 157 to 158 °C
